# Reference: ChEMBL document CHEMBL5357008, “Novel Pyrazolopyridine Inhibitors of Monoacylglycerol Lipase for the Treatment of Neurodegenerative Diseases and Neuroinflammation” (ACS Med Chem Lett, 2024)
# Target: T1, Monoglyceride lipase (Homo sapiens, UniProt Q99685)
# T1 sequence (Q99685 whole entry): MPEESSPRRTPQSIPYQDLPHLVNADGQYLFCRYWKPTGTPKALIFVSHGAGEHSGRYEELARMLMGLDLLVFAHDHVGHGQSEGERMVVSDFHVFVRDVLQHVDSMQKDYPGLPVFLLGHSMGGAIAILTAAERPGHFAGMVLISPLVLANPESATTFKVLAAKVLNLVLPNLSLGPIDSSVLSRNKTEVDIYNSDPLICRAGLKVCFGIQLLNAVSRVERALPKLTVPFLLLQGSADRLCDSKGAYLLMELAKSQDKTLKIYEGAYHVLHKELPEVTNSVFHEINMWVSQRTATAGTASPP
# Test: Inhibition of MAGL (unknown origin) using 2-arachidonoylglycerol as substrate preincubated with compound for 15 mins followed by substrate addition and measured after 30 mins by mass spectrometer analysis
row,SMILES,IC50
1,C[C@H]1c2nn(C)c(-c3cc(F)cc(F)c3)c2CCN1C(=O)c1cc(F)cc(OCC2CNC(=O)O2)c1Cl (stereo partly drawn),2 nM
2,COc1cccc(C(=O)N2CCc3c(nn(C)c3-c3cc(Cl)cc(CS(N)(=O)=O)c3)[C@@H]2C)c1Cl,27 nM
3,CC1c2nn(C)c(-c3cc(F)cc(F)c3)c2CCN1C(=O)c1cc(F)cc(OCC2CNC(=O)C2)c1Cl (stereo not drawn),5 nM
